Measurements as given in patent publication US4918074A, “Polyazaheterocycle compounds” (Yoshitomi Pharmaceutical Industries, Ltd., priority 1984, dated 1990).

Experiments:
[1] = tested on: left coronary blood flow; experiment: Coronary blood flow after injection into left coronary artery of anesthetized dogs; format: in vivo; details: intracoronary injection, anesthetized dog; dose to increase CBF by half of the effect of nifedipine (3 μg)
Description: (§1) Dogs of either sex were anesthetized with sodium pentobarbital (30 mg/kg i.v.). Heparin (500 U/kg i.v.) was administered before making preparation. Under artificial respiration (18 strokes/min, 20 ml/kg tidal volume), left ventricular dp/dt max, and left coronary blood flow were measured (1). Test compounds were injected into the left coronary artery in a volume of 10 or 30 μl. The effects of compounds on coronary blood flow were observed and presented generally as ED50, a dose required to increase coronary blood flow by a half of the effects of nifedipine (3 μg). Similarly, the effects on dp/dt max were observed and shown as ED30, a dose required to increase dp/dt max by 30% of the efffects of isoproterenol (0.1 μg).

[2] = tested on: left ventricular dp/dt max; experiment: Left ventricular dp/dt max after injection into left coronary artery of anesthetized dogs; format: in vivo; details: intracoronary injection, anesthetized dog; dose to increase dp/dt max by 30% of effect of isoproterenol (0.1 μg)
Description: as §1

[3] = tested on: arterial blood pressure; experiment: Hypotensive effects in the anesthetized dog; format: in vivo; details: Canis lupus familiaris, iv, read-out: Hypotensive effect; for inhibition in vivo at 0.3 mg/kg: 300 μg/kg
Description: (§2) Adult mongrel dogs were anesthetized with sodium pentobarbital (30 mg/kg i.v.). Effects of test compounds on arterial blood pressure, coronary arterial blood flow, vertebral blood flow, renal blood flow, left ventricular dp/dt max (dp/dt max) and urine volume were observed. The compounds were administered intravenously (i.v.) or intraduodenally (i.d.).

[4] = tested on: coronary arterial blood flow; experiment: Coronary vasodilating effects in the anesthetized dog; format: in vivo; details: Canis lupus familiaris, iv, read-out: Increase in coronary blood flow; for change in vivo at 0.3 mg/kg: 300 μg/kg
Description: as §2

[5] = tested on: Rabbit aorta; experiment: Ca2+-agonistic and antagonistic activity in rabbit aorta; details: compound 10^-6 M
Description: Rabbit aorta were isolated and cut into ring segments of about 2 mm. These preparations were suspended in 40 ml chambers filled with Krebs-Henseleit solution bubbled with a gas mixture of 95% O2 +5% CO2 (pH 7.4) and kept at 37° C. The contractile response to [K^+ ]o (9-48 mM) was measured in the absence or presence of test compounds (1).
That is, at lower [K^+ ]o these compounds augmented contractile force, however, at higher [K^+ ]o they produced only relaxation of aorta. [K^+ ]o, at which conversion of the effects of compounds (10^-6 M) occurred, was as follows.

[6] = tested on: Papillary muscle; experiment: Ca2+-agonistic and antagonistic action in rabbit myocardium (papillary muscle); details: compound 10^-4 M
Description: Papillary muscle was isolated from rabbit heart and suspended in 40 ml chamber filled with Krebs-Henseleit solution ([Ca^2+ ]o was elevated to 5 mM) bubbled with a gas mixture of 95% O2 +5% CO2 and kept at 37° C. The preparation was electrically driven at a rate of 0.5 Hz and developed tension was observed. [K^+ ]o was varied from 5.9 mM to 27 mM in the absence and presence of test compounds.
[K^+ ]o, at which conversion of the effects of compounds (10^-4 M) occurred, was as follows.

[7] = tested on: blood pressure, coronary, renal and heart function; experiment: Cardiovascular and renal activity in words; format: in vivo
[8] = Oral bioavailability in words; format: in vivo
[9] = tested on: left ventricular dp/dt max; experiment: Cardiotonic effects in the anesthetized dog; format: in vivo; details: Canis lupus familiaris, iv, 300 μg/kg; read-out: Increase in dp/dt max
Description: as §2

[10] = tested on: ddY strain mice; experiment: Acute toxicity in mice; format: in vivo; details: five days after administration
Text: Compound (1), (10) and (23) were orally or intraperitoneally administered to ddY strain mice.

SMILES | Increase in CBF ED50 [1] | Increase in dp/dt max ED30 [2] | inhibition in vivo at 0.03 mg/kg ([3]; 30 μg/kg) | change in vivo at 0.03 mg/kg ([4]; 30 μg/kg) | [K+]o at which conversion of Ca2+-agonistic to Ca2+-antagonistic action occurred [5] | [K+]o at which conversion of Ca2+-agonistic to Ca2+-antagonistic action occurred [6] | Coronary vasodilating activity [7] | Diuretic activity [7] | Heart-depressive activity [7] | Hypotensive activity [7] | Renal blood flow increasing activity [7] | Bioavailability by oral administration [8] | inhibition in vivo at 0.3 mg/kg [3] | change in vivo at 0.3 mg/kg [4] | change in vivo at 0.3 mg/kg [9] | Survival ([10]; intraperitoneal, 250 mg/kg) | Survival ([10]; oral, 1,000 mg/kg)
CC1=C(C(=O)OC(C)C)C(c2ccccc2Br)n2nccc2N1 (stereo not drawn) [(27), 7-(2-Bromophenyl)-6-isopropoxycarbonyl-5-methyl-4,7-dihydropyrazolo[1,5-a]pyrimidine] | 7 µg | 103 µg | 20% | 37% | 22 mM | 12 mM | – | – | – | – | – | – | – | – | – | – | –
CC(C)OC(=O)C1=C(COCCN)Nc2c(C#N)cnn2C1c1cccc(F)c1F (stereo not drawn) [isopropyl 5-(2-aminoethoxymethyl)-3-cyano-7-(2,3-difluorophenyl)-4,7-dihydropyrazolo[1,5-a]pyrimidine-6-carboxylate] | – | – | – | – | – | – | high-selective coronary vasodilating activity | potent diuretic activity | weak heart-depressive activity | mild and long-lasting hypotensive activity | renal blood flow increasing activity | higher bioavailability by the oral administration | – | – | – | – | –
CC1=C(C(=O)OC(C)C)C(c2ccccc2F)n2nccc2N1 (stereo not drawn) [(23), 7-(2-Fluorophenyl)-6-isopropoxycarbonyl-5-methyl-4,7-dihydropyrazolo[1,5-a]pyrimidine] | 15 µg | 71 µg | – | – | 19 mM | 12 mM | – | – | – | – | – | – | 32% | 157% | 44% | All mice survived | All mice survived
CCOC(=O)C1=C(C)Nc2ccnn2C1c1ccccc1C(F)(F)F (stereo not drawn) [(1), 6-Ethoxycarbonyl-5-methyl-7-(2-trifluoromethylphenyl)-4,7-dihydropyrazolo[1,5-a]pyrimidine] | – | – | – | – | 23 mM | 16 mM | – | – | – | – | – | – | – | – | – | All mice survived | All mice survived
CC1=C(C(=O)OC2CCCC2)C(c2ccccc2C(F)(F)F)n2nccc2N1 (stereo not drawn) [(15), 6-Cyclopentyloxycarbonyl-5-methyl-7-(2-trifluoromethylphenyl)-4,7-dihydropyrazolo[1,5-a]pyrimidine] | 1.8 µg | 198 µg | – | – | 20 mM | 18 mM | – | – | – | – | – | – | 20% | 125% | 83% | – | –
CC1=C(C(=O)OC(C)C)C(c2ccccc2C)n2nccc2N1 (stereo not drawn) [(30), 6-Isopropoxycarbonyl-5-methyl-7-(2-methylphenyl)-4,7-dihydropyrazolo[1,5-a]pyrimidine] | – | – | – | – | 28 mM | 15 mM | – | – | – | – | – | – | – | 47% | 46% | – | –
CC1=C(C(=O)OC2CCCC2)C(c2ccccc2F)n2nccc2N1 (stereo not drawn) [(25), 6-Cyclopentyloxycarbonyl-7-(2-fluorophenyl)-5-methyl-4,7-dihydropyrazolo[1,5-a]pyrimidine] | 28 µg | 164 µg | – | – | – | 15 mM | – | – | – | – | – | – | – | – | – | – | –
CC1=C(C(=O)OC(C)(C)C)C(c2ccccc2C(F)(F)F)n2nccc2N1 (stereo not drawn) [(13), 6-tert-Butoxycarbonyl-5-methyl-7-(2-trifluoromethylphenyl)-4,7-dihydropyrazolo[1,5-a]pyrimidine] | 22 µg | 70 µg | – | – | 24 mM | 14 mM | – | – | – | – | – | – | – | 34% | 39% | – | –
CC1=C(C(=O)OC(C)C)C(c2ccccc2C(F)(F)F)n2nccc2N1 (stereo not drawn) [(10), 6-Isopropoxycarbonyl-5-methyl-7-(2-trifluoromethylphenyl)-4,7-dihydropyrazolo[1,5-a]pyrimidine] | 5.7 µg | 71 µg | – | – | 21 mM | 15 mM | – | – | – | – | – | – | 31% | 132% | 39% | All mice survived | All mice survived
